One may read the pKi as the negative decadic logarithm of the Ki, by convention in mol/L. Usually Vss stands for a proportionality between amount in the body and measured concentration, not a real space. Read a high Vss as wide distribution into tissue. Broadly, the Cmax is the peak of the concentration-time curve.

We go through six compounds from patent publication US20250145632A1, “Pyrimidine Heterocyclic Compound, Preparation Method Thereof and use Thereof in Medicine” (INSILICO MEDICINE IP LIMITED, priority 2021, published 2025).

pIC50, pKi: −log10 of the molar value.

One data set concerns the target CDK2/Cyclin E1 (Homo sapiens (Human), UniProt P24941). Put plainly: In-vitro inhibition of CDK2/Cyclin E1 kinase activity (Caliper mobility shift). The class given is biochemical. To be noted: for pKi: Ki calculated from IC50 under Km ATP condition (Cheng and Prusoff); for Selectivity (CDK2 Ki/CDK7 KD): Ki off-target / KD CDK7 (SPR). An excerpt: (§1) CDK2/Cyclin E1 was purchased from Biortus; batch No.: 20150228-BP469/477/691; CDK7/Cyclin H/MAT1 was purchased from Biortus; Batch No.: 20190326-BP487/492/479; CDK9/Cyclin T1 was purchased from Biortus; Batch No.: 20200727-BP488/792/691; CDK12/Cyclin K was purchased from Biortus; Batch No.: 20200526-BP1642/1648/691; MES was purchased from BiRoYee (Baoruyi); Batch No.: 67GR9637; BSA was purchased from Aladdin; Batch No.: H1601024; ATP was purchased from VWR; Batch No.: 97061-226; EDTA was purchased from Sinopharm Group; Batch No.: 20200521; and staurosporine was purchased from Selleckchem; Batch No.: S1421.
(§2) This experiment was used for determining the inhibition of the activities of CDK2, CDK7, CDK9 and CDK12 kinases by the compound. The kinase reaction carried out by the present invention was measured in a 384-well plate, the final measured volume was 16 μl, and the reaction temperature was 27° C. The concentrations of the kinases were determined by optimization experiment. The specific experimental process was as follows: • 1) preparation of kinase solutions: • kinase solution (CDK2/Cyclin E1): the kinase was diluted in a assay buffer solution ((20 mM MES pH 6.75, 0.01% Tween 20, 0.05 mg/mL BSA, 2 mM MgCl2) to obtain an enzyme solution with the corresponding 2.4× concentration; • kinase solution (CDK7/Cyclin H/MAT1): the kinase was diluted in the assay buffer solution (20 mM MES pH 6.75, 0.01% Tween 20, 0.05 mg/mL BSA, 6 mM MgCl2) to obtain an enzyme solution with the corresponding 2.4× concentration; • kinase solution (CDK9/Cyclin T1): the kinase was diluted in the assay buffer solution (20 mM MES pH 6.75, 0.01% Tween 20, 0.05 mg/mL BSA, 10 mM MgCl2) to obtain an enzyme solution with the corresponding 2.4× concentration; and • kinase solution (CDK12/Cyclin K): the kinase was diluted in a assay buffer solution (80 mM MES pH 6.5, 0.01% Tween 20, 0.05 mg/mL BSA, 10 mM MgCl2) to obtain an enzyme solution with the corresponding 2.4× concentration. • 2) Preparation of compound solutions: the compound was dissolved in dimethyl sulfoxide (DMSO) at a concentration of 10 mM, the compound was diluted to 10 concentration gradients of 25 nM to 500 μM with DMSO during use, diluted in ultrapure water by 8.3 times respectively to obtain compound solutions with 6× concentration. • 3) Preparation of a polypeptide substrate and ATP solution: the polypeptide substrate and ATP were diluted in the assay buffer solution to obtain a polypeptide substrate and ATP mixed solution with 2.4× concentration. • 4) Kinase reaction process: • 2 ul of the test compound solution, 5 ul of the polypeptide substrate and ATP mixed solution and 5 ul of an enzyme solution were mixed and incubated at 27° C. (CDK2 was incubated for 60 min, CDK7 was incubated for 70 min, CDK9 was incubated for 70 min, and CDK12 was incubated for 280 min), and then 4 ul of EDTA with a concentration of 150 mM was added into each sample to terminate the reaction. […] The data was calculated with GraphPad Prism version 9.0, and an IC50 value was obtained by adjusting a nonlinear regression model using a dose reaction curve. The calculation formula was Y=Bottom+(Top-Bottom)/(1+10^((LogIC50−X)*HillSlope)). X represents a log value (log of dose or concentration); Y represents an inhibition rate (% inhibition, increasing as x increases) which was increased along with the increase of X; Top represents maximum response; Bottom represents baseline response; and HillSlope represents a curve slope.

In another data set the target is CDK12/Cyclin K (Homo sapiens (Human), UniProt Q9NYV4). Put plainly: In-vitro inhibition of CDK12/Cyclin K kinase activity (Caliper mobility shift). The class given is biochemical. Conditions: for pKi: Ki calculated from IC50 under Km ATP condition (Cheng and Prusoff); for Selectivity (CDK12 Ki/CDK7 KD): Ki off-target / KD CDK7 (SPR).
Excerpt: as §1, §2

The next data set has as its target CDK9/Cyclin T1 (Homo sapiens (Human), UniProt P50750). Briefly: In-vitro inhibition of CDK9/Cyclin T1 kinase activity (Caliper mobility shift). Conditions: for pKi: Ki calculated from IC50 under Km ATP condition (Cheng and Prusoff); for Selectivity (CDK9 Ki/CDK7 KD): Ki off-target / KD CDK7 (SPR). The class given is biochemical.
Excerpt: as §1, §2

The next data set has as its target CDK7/Cyclin H/MAT1 (Homo sapiens (Human), UniProt P50613). Put plainly: In-vitro inhibition of CDK7/Cyclin H/MAT1 kinase activity (Caliper mobility shift). Type of data set: biochemical. Conditions: ATP 50 μM, 70 min, 27° C.; read-out: CDK7/CyclinH/MAT1 IC50 assay.
Excerpt: as §1
This experiment was used for determining the inhibition of the activities of CDK2, CDK7, CDK9 and CDK12 kinases by the compound. The kinase reaction carried out by the present invention was measured in a 384-well plate, the final measured volume was 16 μl, and the reaction temperature was 27° C. The concentrations of the kinases were determined by optimization experiment. […] The data was calculated with GraphPad Prism version 9.0, and an IC50 value was obtained by adjusting a nonlinear regression model using a dose reaction curve. […]

For data set [1], the system named is HCC70 human breast ductal cancer cells. Briefly: HCC70 tumor cell proliferation inhibition (CellTiter-Glo). The class given is cell-based. To be noted: 3 d culture. The method, then: HCC70 was purchased from ATCC; article No.: CRL-2315; RPMI1640 was purchased from Gibco; article No.: 11875-093; Pancreatin (including EDTA) was purchased from Gibco; article No.: 25200-072; FBS was purchased from Gibco; article No.: 10099-141C; CellTiter-Glo was purchased from Promega; article No.: G7573; DMSO was purchased from VWR AMRESCO; article No.: 0231-500ML; Staurosporine was purchased from Selleck; article No.: S1421; a cell counter was purchased from CHEMOMETEC; model: NC-200; and a microplate reader was purchased from PerkinElmer; Model: Envison.
(§3) HCC70 was human breast ductal cancer cells cultured in an RPMI-1640 culture medium containing 10% FBS. Cells in logarithmic phase were taken, and the cells were subjected to digesting, collecting and counting with pancreatin-EDTA, 2000 HCC70 cells/well were inoculated in a 384-well cell plate, and were cultured in 5% CO2 overnight. A 1000× compound stock solution with 3.16 times of gradient concentration was prepared with DMSO, and was diluted 100 times to 10× compound stock solution with a culture medium, and 10× compound stock solution was added into each cell culture well on the next day after cell inoculation, wherein the final concentration was 1×, and the DMSO content was 0.1%. The cell group was treated with DMSO as an experimental control (control), and the cell group was treated with 5 μM of Staurosporine as a blank control (blank).

Data set [2] is described as follows: In-vivo pharmacokinetic experiment in male beagles. Further details: species or system dog. Conditions: beagle. The method, then:
Experimental method and conditions: male beagles with weight of 8-11 kg were purchased from Jiangsu Marshall Biotechnology Co., Ltd. The to-be-tested compound was administered to 3 dogs at 0.2 mg/kg or 1.0 mg/kg (solvent: 2% DMSO+10% Kolliphor HS 15+88% (6.818% of hydroxypropyl-beta-cyclodextrin aqueous solution), 0.2 mg/mL or 1.0 mg/mL) by intravenous injection, and administered to 3 dogs at 2 mg/kg (solvent: 5% DMSO+95% (10% hydroxypropyl-beta-cyclodextrin salt aqueous solution, 0.4 mg/mL) by oral intragastric administration. Head vein blood sampling was carried out 5 min, 15 min, 30 min, 1 h, 2 h, 4 h, 8 h and 24 h after the administration, and 500 μL of each sample was collected. After collection, the samples were placed on ice, and plasma was centrifugally separated within 15 min for testing. The concentration of the medicine in the plasma was detected by liquid chromatography-tandem mass spectrometry (LC/MS/MS), and pharmacokinetic parameters were calculated with Phoenix WinNonlin software when the concentration was measured.

The subject of data set [3] is OVCAR-3 human ovarian adenocarcinoma cells. Briefly: OVCAR-3 tumor cell proliferation inhibition (CellTiter-Glo). The class given is cell-based. Conditions: 3 d culture. The method, then:
OVCAR-3 was purchased from ATCC; article No.: HTB-161; RPMI1640 was purchased from Gibco; article No.: 11875-093; Pancreatin (including EDTA) was purchased from Gibco; article No.: 25200-072; FBS was purchased from Gibco; Article No.: 10091-148; CellTiter-Glo was purchased from Promega; article No.: G7573; Bovine insulin was purchased from absin; article No.: abs9169; DMSO was purchased from VWR AMRESCO; article No.: 0231-500ML; Staurosporine was purchased from Selleck; article No.: S1421; a cell counter was purchased from CHEMOMETEC; model: NC-200; and a microplate reader was purchased from PerkinElmer; Model: Envison.
as §3, with “OVCAR-3” for “HCC70”, “ovarian adenocarcinoma” for “breast ductal cancer”, “20% FBS and 0.01 mg/mL of Bovine insulin.” for “10% FBS.”

Setting [4] is: intravenous injection 0.2 mg/kg.

Sequence of CDK12/Cyclin K (Q9NYV4 whole entry): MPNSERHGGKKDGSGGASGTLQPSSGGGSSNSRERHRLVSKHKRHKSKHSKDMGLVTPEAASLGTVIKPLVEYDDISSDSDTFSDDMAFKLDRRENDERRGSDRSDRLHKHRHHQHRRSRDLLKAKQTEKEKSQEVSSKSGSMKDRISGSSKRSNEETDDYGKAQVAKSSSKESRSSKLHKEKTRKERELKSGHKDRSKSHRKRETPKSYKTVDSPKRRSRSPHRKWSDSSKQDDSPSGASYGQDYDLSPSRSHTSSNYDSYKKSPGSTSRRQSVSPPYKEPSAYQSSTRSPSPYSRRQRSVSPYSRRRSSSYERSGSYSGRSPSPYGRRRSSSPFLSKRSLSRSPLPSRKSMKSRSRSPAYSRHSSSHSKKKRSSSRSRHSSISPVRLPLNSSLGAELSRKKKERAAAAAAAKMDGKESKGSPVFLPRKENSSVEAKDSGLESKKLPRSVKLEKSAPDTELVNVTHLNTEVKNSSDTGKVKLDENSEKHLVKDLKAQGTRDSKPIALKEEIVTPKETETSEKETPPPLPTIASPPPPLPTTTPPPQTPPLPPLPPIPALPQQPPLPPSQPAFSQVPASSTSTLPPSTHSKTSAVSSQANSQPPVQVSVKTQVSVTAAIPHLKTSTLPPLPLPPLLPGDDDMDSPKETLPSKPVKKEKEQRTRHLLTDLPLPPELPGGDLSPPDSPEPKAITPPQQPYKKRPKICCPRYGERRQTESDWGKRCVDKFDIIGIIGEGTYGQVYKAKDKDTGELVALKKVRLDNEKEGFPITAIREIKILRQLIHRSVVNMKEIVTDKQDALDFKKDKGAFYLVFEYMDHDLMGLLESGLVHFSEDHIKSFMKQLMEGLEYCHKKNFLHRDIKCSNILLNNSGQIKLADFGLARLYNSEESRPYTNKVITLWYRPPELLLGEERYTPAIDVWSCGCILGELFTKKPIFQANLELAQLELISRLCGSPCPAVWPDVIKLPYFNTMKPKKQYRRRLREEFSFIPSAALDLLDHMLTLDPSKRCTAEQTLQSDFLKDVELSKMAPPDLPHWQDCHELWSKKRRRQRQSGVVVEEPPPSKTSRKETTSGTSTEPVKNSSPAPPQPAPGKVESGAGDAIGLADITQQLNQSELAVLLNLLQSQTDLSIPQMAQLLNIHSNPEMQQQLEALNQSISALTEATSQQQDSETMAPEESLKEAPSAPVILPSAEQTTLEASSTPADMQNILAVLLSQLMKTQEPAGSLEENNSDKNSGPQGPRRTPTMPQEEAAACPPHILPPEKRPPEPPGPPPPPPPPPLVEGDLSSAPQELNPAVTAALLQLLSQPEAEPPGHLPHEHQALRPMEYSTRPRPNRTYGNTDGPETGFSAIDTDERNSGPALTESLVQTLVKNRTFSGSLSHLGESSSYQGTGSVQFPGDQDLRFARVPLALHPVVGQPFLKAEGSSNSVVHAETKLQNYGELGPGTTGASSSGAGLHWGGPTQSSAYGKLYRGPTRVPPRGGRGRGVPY
Sequence of CDK12/Cyclin K (O75909 whole entry partner): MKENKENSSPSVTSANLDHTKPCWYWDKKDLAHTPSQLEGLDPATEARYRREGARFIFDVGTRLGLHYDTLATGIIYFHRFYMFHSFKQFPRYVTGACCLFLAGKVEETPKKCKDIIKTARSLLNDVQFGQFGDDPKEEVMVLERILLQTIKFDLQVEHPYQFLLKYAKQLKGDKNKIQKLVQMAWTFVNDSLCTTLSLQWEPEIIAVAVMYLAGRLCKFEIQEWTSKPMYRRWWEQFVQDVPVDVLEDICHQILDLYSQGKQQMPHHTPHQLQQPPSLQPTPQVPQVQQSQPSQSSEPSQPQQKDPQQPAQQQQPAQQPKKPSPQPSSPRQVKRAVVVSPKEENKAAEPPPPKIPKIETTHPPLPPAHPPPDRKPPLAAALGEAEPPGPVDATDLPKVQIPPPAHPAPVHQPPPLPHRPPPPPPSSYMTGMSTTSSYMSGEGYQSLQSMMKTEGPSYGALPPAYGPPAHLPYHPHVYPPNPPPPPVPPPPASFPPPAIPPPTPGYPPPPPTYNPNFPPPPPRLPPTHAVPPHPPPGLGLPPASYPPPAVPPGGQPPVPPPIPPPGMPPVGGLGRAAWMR
Sequence of CDK9/Cyclin T1 (P50750 whole entry): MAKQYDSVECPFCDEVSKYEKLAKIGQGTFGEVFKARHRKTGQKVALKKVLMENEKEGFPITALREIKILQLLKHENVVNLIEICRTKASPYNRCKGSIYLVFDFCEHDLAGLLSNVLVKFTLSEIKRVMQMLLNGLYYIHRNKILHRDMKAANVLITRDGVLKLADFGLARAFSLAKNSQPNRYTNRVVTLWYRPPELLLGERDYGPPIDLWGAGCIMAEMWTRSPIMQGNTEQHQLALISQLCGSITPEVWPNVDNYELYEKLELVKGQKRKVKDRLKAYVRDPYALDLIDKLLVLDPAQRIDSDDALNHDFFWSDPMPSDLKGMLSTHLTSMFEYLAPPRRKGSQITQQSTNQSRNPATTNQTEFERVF
Sequence of CDK9/Cyclin T1 (O60563 whole entry partner): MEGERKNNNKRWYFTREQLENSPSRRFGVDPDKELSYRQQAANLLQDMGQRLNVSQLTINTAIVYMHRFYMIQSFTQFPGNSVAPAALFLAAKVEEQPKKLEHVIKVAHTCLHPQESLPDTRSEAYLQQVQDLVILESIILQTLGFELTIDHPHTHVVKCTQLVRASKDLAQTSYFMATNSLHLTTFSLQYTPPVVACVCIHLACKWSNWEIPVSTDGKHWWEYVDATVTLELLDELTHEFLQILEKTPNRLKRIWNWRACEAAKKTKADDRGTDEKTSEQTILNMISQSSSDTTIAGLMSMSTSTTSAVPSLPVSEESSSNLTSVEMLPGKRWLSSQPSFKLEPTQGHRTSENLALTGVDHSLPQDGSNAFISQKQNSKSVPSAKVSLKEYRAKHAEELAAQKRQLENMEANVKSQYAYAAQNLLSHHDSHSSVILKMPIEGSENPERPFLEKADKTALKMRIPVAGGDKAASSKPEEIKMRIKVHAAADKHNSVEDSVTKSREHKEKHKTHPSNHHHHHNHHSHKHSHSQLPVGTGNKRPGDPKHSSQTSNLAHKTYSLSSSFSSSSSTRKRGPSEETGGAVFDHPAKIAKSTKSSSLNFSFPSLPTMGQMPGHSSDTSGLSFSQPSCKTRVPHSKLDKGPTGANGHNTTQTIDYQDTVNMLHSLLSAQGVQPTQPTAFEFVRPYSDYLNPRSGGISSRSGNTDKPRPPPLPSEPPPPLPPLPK
Sequence of CDK7/Cyclin H/MAT1 (P50613 whole entry): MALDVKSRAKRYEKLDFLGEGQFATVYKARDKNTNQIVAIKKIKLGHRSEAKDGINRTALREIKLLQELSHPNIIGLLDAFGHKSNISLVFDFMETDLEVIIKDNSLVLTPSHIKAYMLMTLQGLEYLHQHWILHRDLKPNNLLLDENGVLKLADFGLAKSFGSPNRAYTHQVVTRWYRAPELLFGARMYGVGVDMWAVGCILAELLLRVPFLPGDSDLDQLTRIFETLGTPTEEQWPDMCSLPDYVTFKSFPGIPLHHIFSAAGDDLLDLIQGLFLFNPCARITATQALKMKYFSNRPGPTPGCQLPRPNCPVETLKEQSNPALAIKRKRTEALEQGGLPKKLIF
Sequence of CDK7/Cyclin H/MAT1 (P51946 whole entry partner): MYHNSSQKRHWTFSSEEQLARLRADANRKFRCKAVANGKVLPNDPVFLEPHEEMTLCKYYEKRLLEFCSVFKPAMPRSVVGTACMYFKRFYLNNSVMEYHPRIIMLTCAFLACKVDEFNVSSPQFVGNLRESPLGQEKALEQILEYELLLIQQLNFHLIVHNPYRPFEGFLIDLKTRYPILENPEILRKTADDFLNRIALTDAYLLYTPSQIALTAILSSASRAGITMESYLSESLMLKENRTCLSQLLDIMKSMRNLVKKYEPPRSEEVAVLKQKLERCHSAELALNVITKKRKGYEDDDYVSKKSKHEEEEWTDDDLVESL
Sequence of CDK7/Cyclin H/MAT1 (P51948 whole entry partner): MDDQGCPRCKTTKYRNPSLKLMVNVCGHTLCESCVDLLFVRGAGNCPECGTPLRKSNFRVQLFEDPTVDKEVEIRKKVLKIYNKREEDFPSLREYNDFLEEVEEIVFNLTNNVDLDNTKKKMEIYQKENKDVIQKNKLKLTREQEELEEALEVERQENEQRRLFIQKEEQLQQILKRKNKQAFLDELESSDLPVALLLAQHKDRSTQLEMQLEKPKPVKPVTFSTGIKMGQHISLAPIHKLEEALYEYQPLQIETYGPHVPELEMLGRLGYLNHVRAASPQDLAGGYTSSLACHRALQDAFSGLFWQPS

Take `O=C1NCCOCCN2CC[C@@H](C2)Nc2ncc(C(F)(F)F)c(n2)-c2c[nH]c3cc1ccc23` [Compound Z1, (4^3S)-2^5-(trifluoromethyl)-1^1H-7-oxa-3,10-diaza-1(3,6)-indola-2(4,2)-pyrimidina-4(3,1)-pyrrolidinacycloundecaphan-11-one]: the negative-log Ki (pKi) is 6.81 at CDK2/Cyclin E1, 7.20 on CDK12/Cyclin K and 7.28 at CDK9/Cyclin T1. For the same compound, the pIC50 on CDK7/Cyclin H/MAT1 was 7.96.

Turning to `CP(C)(=O)c1c2ccc3c(c[nH]c13)-c1nc(ncc1C(F)(F)F)N[C@H]1CC[C@@H](C1)NCCCCNC2=O` [Compound Z5], on CDK2/Cyclin E1, the pKi is 7.59 and the “Selectivity (CDK2 Ki/CDK7 KD)” value is reported as “(CDK2 Ki/CDK7 KD): 160”. On CDK12/Cyclin K, the pKi was 7.58 and the “Selectivity (CDK12 Ki/CDK7 KD)” value is recorded as “(CDK12 Ki/CDK7 KD): 163”. For the same compound, on CDK9/Cyclin T1, the pKi was 7.02 and the “Selectivity (CDK9 Ki/CDK7 KD)” value was “(CDK9 Ki/CDK7 KD): 597”. This compound also had a pIC50 in data set [1] of 7.37.

Turning to `CP(C)(=O)c1c2ccc3c(c[nH]c13)-c1nc(ncc1C(F)(F)F)N[C@H]1CC[C@@H](C1)NCCOCCNC2=O` [Compound Z7, (4^1S,4^3S)-1^7-(dimethylphosphoryl)-2^5-(trifluoromethyl)-1H-8-oxa-3,5,11-triaza-1(3,6)-indola-2(4,2)-pyrimidina-4(1,3)-cyclopentanacyclododecaphan-12-one], on CDK2/Cyclin E1, the pKi is 7.48 and the “Selectivity (CDK2 Ki/CDK7 KD)” value is given as “(CDK2 Ki/CDK7 KD): 566”. On CDK12/Cyclin K, the pKi is 7.21 and the “Selectivity (CDK12 Ki/CDK7 KD)” value is “(CDK12 Ki/CDK7 KD): 61.35”. For the same compound, at CDK9/Cyclin T1, the pKi is 6.66 and the “Selectivity (CDK9 Ki/CDK7 KD)” value is reported as “(CDK9 Ki/CDK7 KD): 3675”. In data set [1], this compound had a pIC50 of 7.39.

Consider `CN1CC(F)(F)CCN(C)[C@H]2CC[C@@H](C2)Nc2ncc(C(F)(F)F)c(n2)-c2c[nH]c3c(P(C)(C)=O)c(ccc23)C1=O` [Compound Z65, (4^1S,43S)-1^7-(dimethylphosphoryl)-8,8-difluoro-5,10-dimethyl-2^5-(trifluoromethyl)-1^1H-3,5,10-triaza-1(3,6)-indola-2(4,2)-pyrimidina-4(1,3)-cyclopentanacycloundecaphan-11-one], for which, in data set [2] (setting [4]), the “AUC0~inf” value stood at 3097 ng·h/mL, the “CL” value came out at 1.23 mL/min/kg, the “T1/2” value is reported as 3.42 h and the “Vss” value turned out to be 0.24 L/kg. Besides, in data set [2] (oral administration 2 mg/kg), the “AUC0~inf” value was found to be 45620 ng·h/mL, the “Cmax” value is given as 6623 ng/mL, the “F(%)” value was 147% and the “T1/2” value stood at 4.44 h. Also, the negative logarithm of the Ki (pKi) on CDK9/Cyclin T1 is 6.59. Besides, the pIC50 in data set [1] was 7.33. Besides, the pIC50 in data set [3] was 6.60.

Consider `CN1C[C@@H](F)CCN(C)[C@H]2CC[C@@H](C2)Nc2ncc(C(F)(F)F)c(n2)-c2c[nH]c3c(P(C)(C)=O)c(ccc23)C1=O` [Compound Z79, (4^1S,4^3S,8S)-1^7-(dimethylphosphoryl)-8-fluoro-5,10-dimethyl-2^5-(trifluoromethyl)-1^1H-3,5,10-triaza-1(3,6)-indola-2(4,2)-pyrimidina-4(1,3)-cyclopentanacycloundecaphan-11-one], for which, at CDK2/Cyclin E1, the pKi is 7.63 and the “Selectivity (CDK2 Ki/CDK7 KD)” value was “(CDK2 Ki/CDK7 KD): 192”. For the same compound, on CDK12/Cyclin K, the negative-log Ki (pKi) is 7.03 and the “Selectivity (CDK12 Ki/CDK7 KD)” value is reported as “(CDK12 Ki/CDK7 KD): 763”. Further, on CDK9/Cyclin T1, the pKi is 6.87 and the “Selectivity (CDK9 Ki/CDK7 KD)” value was “(CDK9 Ki/CDK7 KD): 1103”. Also, the pIC50 in data set [1] is 7.18. The same compound had a pIC50 in data set [3] of 7.08.

Turning to “(4^1S, 4^3S)-2^5-(trifluoromethyl)-1^1H-3,5,10-triaza-1(3,6)-indola-2(4,2)-pyrimidina-4(1,3)-cyclopentanacycloundecaphan-11-one [Compound Z2]”, at CDK2/Cyclin E1, the negative logarithm of the Ki (pKi) is 8.01 and the “Selectivity (CDK2 Ki/CDK7 KD)” value was “(CDK2 Ki/CDK7 KD): 70”. Further, on CDK12/Cyclin K, the pKi is 7.64 and the “Selectivity (CDK12 Ki/CDK7 KD)” value is recorded as “(CDK12 Ki/CDK7 KD): 162”. For the same compound, on CDK9/Cyclin T1, the pKi is 7.97 and the “Selectivity (CDK9 Ki/CDK7 KD)” value is “(CDK9 Ki/CDK7 KD): 76”. In addition, the pIC50 on CDK7/Cyclin H/MAT1 is 8.34. The pIC50 in data set [1] was 6.68.
